Columns and labels:
[1] = target: T1, h-GABA-A α5β3γ2 (Homo sapiens, UniProt P18507+P31644); assay: Two-electrode voltage clamp electrophysiology in Xenopus laevis oocytes expressing GABAA receptors, modulation of GABA EC20 current; assay type: cell-based; design: host or cells: Xenopus laevis oocytes micro-injected with RNA transcripts of the subunits; details: Table 1; for Efficacy (GABA) %: % modulation of GABA EC20 = 100*(Fold increase-1); for Fold increase h-GABA-A α5β3γ2 oocyte: test compound at approx. 30 fold its Ki, GABA at EC20
In short: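 Human α5β3γ2 GABAA receptors were expressed in Xenopus oocytes by RNA injection, with γ2 RNA 5–10-fold higher, and recorded 3–5 days later by two-electrode voltage clamp at −80 mV at room temperature. The test compound, at about 30× its Ki, was co-applied during a second GABA EC20 pulse. Efficacy is the extremum of the point-by-point ratio to the first response, expressed as 100*(Fold increase−1).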

[2] = target: T1, h-GABA-A α5β3γ2; assay: [3H]flumazenil competition binding assay, membranes of HEK293 cells expressing GABAA receptors; details: displacement of [3H]-Flumazenil 0.5 nM, HEK293 cells expressing human receptors, mean of two determinations; Table 1
In short: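 Membranes from HEK293 cells transiently expressing human α5β3γ2 GABAA receptors, in Krebs-tris buffer pH 7.5, competed against [3H]flumazenil for 1 hour at 4° C to equilibrium. Bound radioactivity collected on GF/C filters and counted by liquid scintillation; Ki values are means of two determinations.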

SMILES | Efficacy (GABA) % [1] | Fold increase h-GABA-A α5β3γ2 oocyte [1] | Ki [2]
Cc1ccc(-c2noc(C)c2Cn2ncc(N3CC(OCC4CC4)C3)cc2=O)nn1 [Example 185, 5-[3-(cyclopropylmethoxy)azetidin-1-yl]-2-[[5-methyl-3-(6-methylpyridazin-3-yl)isoxazol-4-yl]methyl]pyridazin-3-one] | 126% | 2.26 | 4.2 nM
Cc1onc(-c2ccc(Cl)nc2)c1Cn1ncc(N2CC(OC(C)C(F)(F)F)C2)cc1=O (single isomer, unassigned) [Example 266] | 136% | 2.36 | 35.8 nM
Cc1onc(-c2ccc(Cl)nc2)c1Cn1ncc(N2CCC3(CCCCO3)CC2)cc1=O [Example 333, 2-[[3-(6-chloro-3-pyridyl)-5-methyl-isoxazol-4-yl]methyl]-5-(1-oxa-9-azaspiro[5.5]undecan-9-yl)pyridazin-3-one] | 190% | 2.9 | 41.4 nM
Cc1onc(-c2ccc(C(F)(F)F)nc2)c1Cn1ncc(N2CCN(C3CC3)CC2)cc1=O [Example 66, 5-(4-cyclopropylpiperazin-1-yl)-2-[[5-methyl-3-[6-(trifluoromethyl)-3-pyridyl]isoxazol-4-yl]methyl]pyridazin-3-one] | 121% | 2.21 | 26.4 nM
COc1ccc(-c2cnn(Cc3c(-c4ccc(C)nc4)noc3C)c(=O)c2)cc1 [Example 76, 5-(4-methoxyphenyl)-2-[[5-methyl-3-(6-methylpyridin-3-yl)-1,2-oxazol-4-yl]methyl]pyridazin-3-one] | 71% | 1.71 | 6.4 nM
Cc1ccc(-c2noc(C)c2Cn2ncc(N3CC4(CC(C)CO4)C3)cc2=O)nn1 (single isomer, unassigned) [Example 240, 2-[[5-methyl-3-(6-methylpyridazin-3-yl)isoxazol-4-yl]methyl]-5-[(7R)-7-methyl-5-oxa-2-azaspiro[3.4]octan-2-yl]pyridazin-3-one or enantiomer] | 94% | 1.94 | 5.7 nM
CCc1cc(-c2cnn(Cc3c(-c4ccc(C)nc4)noc3C)c(=O)c2)ccn1 [Example 196, 5-(2-ethyl-4-pyridyl)-2-((5-methyl-3-(6-methyl-3-pyridyl)isoxazol-4-yl)methyl)pyridazin-3-one] | 98% | 1.98 | 3.7 nM
Cc1ccc(-c2noc(C)c2Cn2ncc(N3CCC(C)(O)C3)cc2=O)cn1 (stereo not drawn) [Example 118, 5-(3-hydroxy-3-methylpyrrolidin-1-yl)-2-((5-methyl-3-(6-methylpyridin-3-yl)isoxazol-4-yl)methyl)pyridazin-3(2H)-one] | 210% | 3.1 | 9.2 nM
Cc1ccc(-c2noc(C)c2Cn2ncc(N3CC(Oc4ccc(Cl)nc4)C3)cc2=O)cn1 [Example 138, 5-[3-[(6-chloro-3-pyridyl)oxy]azetidin-1-yl]-2-[[5-methyl-3-(6-methyl-3-pyridyl)isoxazol-4-yl]methyl]pyridazin-3-one] | 105% | 2.05 | 9.2 nM
Cc1ccc(-c2noc(C)c2Cn2ncc(N3CCOCC3)cc2=O)cn1 [Example 22, 2-[[5-methyl-3-(6-methyl-3-pyridyl)isoxazol-4-yl]methyl]-5-morpholino-pyridazin-3-one] | 166% | 2.66 | 3.2 nM
Cc1onc(-c2ccc(Cl)nc2)c1Cn1ncc(N2CC3(C2)CC(F)(F)CO3)cc1=O [Example 217, 2-((3-(6-chloropyridin-3-yl)-5-methylisoxazol-4-yl)methyl)-5-(7,7-difluoro-5-oxa-2-azaspiro[3.4]octan-2-yl)pyridazin-3(2H)-one] | 85% | 1.85 | 12.3 nM
Cc1ccc(-c2noc(C)c2Cn2ncc(N3CC4(C[C@@H](OC(F)F)CO4)C3)cc2=O)nn1 [Example 242, 5-[(7R)-7-(difluoromethoxy)-5-oxa-2-azaspiro[3.4]octan-2-yl]-2-[[5-methyl-3-(6-methylpyridazin-3-yl)isoxazol-4-yl]methyl]pyridazin-3-one] | 80% | 1.8 | 3 nM
Cc1ccc(-c2noc(C)c2Cn2ncc(N3CCC(C)(O)CC3)cc2=O)cn1 [Example 119, 5-(4-hydroxy-4-methylpiperidin-1-yl)-2-((5-methyl-3-(6-methylpyridin-3-yl)isoxazol-4-yl)methyl)pyridazin-3(2H)-one] | 138% | 2.38 | 2.6 nM
Cc1cc(-c2noc(C)c2Cn2ncc(N3CC4(C3)CN(C3CC3)C4)cc2=O)no1 [Example 87, 5-(2-cyclopropyl-2,6-diazaspiro[3.3]heptan-6-yl)-2-[[5-methyl-3-(5-methylisoxazol-3-yl)isoxazol-4-yl]methyl]pyridazin-3-one] | 105% | 2.05 | 39 nM
Cc1ccc(-c2noc(C)c2Cn2ncc(N3CC4(CCCCO4)C3)cc2=O)cn1 [Example 216, 2-((5-methyl-3-(6-methylpyridin-3-yl)isoxazol-4-yl)methyl)-5-(5-oxa-2-azaspiro[3.5]nonan-2-yl)pyridazin-3(2H)-one] | 103% | 2.03 | 15.8 nM
Cc1ccc(-c2noc(C)c2Cn2ncc(N3CC4(C[C@H](F)CO4)C3)cc2=O)cn1 [Example 201, 5-[(7S)-7-fluoro-5-oxa-2-azaspiro[3.4]octan-2-yl]-2-[[5-methyl-3-(6-methyl-3-pyridyl)isoxazol-4-yl]methyl]pyridazin-3-one] | 93% | 1.93 | 14.3 nM
Cc1ccc(-c2noc(C)c2Cn2ncc(N3CCNC4(CC4)C3)cc2=O)cn1 [Example 74, 5-(4,7-diazaspiro[2.5]octan-7-yl)-2-[[5-methyl-3-(6-methyl-3-pyridyl)isoxazol-4-yl]methyl]pyridazin-3-one] | 132% | 2.32 | 0.4 nM
Cc1ccc(-c2noc(C)c2Cn2ncc(N3CC(OC(C)(C)C)C3)cc2=O)nn1 [Example 234, 5-(3-(tert-butoxy)azetidin-1-yl)-2-((5-methyl-3-(6-methylpyridazin-3-yl)isoxazol-4-yl)methyl)pyridazin-3(2H)-one] | 93% | 1.93 | 4.4 nM
Cc1ccc(-c2noc(C)c2Cn2ncc(N3CCN[C@H](C)C3)cc2=O)cn1 [Example 50, 2-[[5-methyl-3-(6-methyl-3-pyridyl)isoxazol-4-yl]methyl]-5-[(3R)-3-methylpiperazin-1-yl]pyridazin-3-one] | 187% | 2.87 | 2.8 nM
Cc1ccc(-c2noc(C)c2Cn2ncc(N3CC(O)(C(F)(F)F)C3)cc2=O)cn1 [Example 117, 5-(3-hydroxy-3-(trifluoromethyl)azetidin-1-yl)-2-((5-methyl-3-(6-methylpyridin-3-yl)isoxazol-4-yl)methyl)pyridazin-3(2H)-one] | 226% | 3.26 | 4.1 nM
Cc1ccc(-c2noc(C)c2Cn2ncc(N3CC4(CCCCO4)C3)cc2=O)nn1 [Example 235, 2-((5-methyl-3-(6-methylpyridazin-3-yl)isoxazol-4-yl)methyl)-5-(5-oxa-2-azaspiro[3.5]nonan-2-yl)pyridazin-3(2H)-one] | 77% | 1.77 | 2.8 nM
Cc1onc(-c2ccc(Cl)nc2)c1Cn1ncc(N2CC(OC(C)C(F)(F)F)C2)cc1=O (single isomer, unassigned) [Example 265] | 155% | 2.55 | 25.8 nM
COC1CN(c2cnn(Cc3c(-c4ccc(Cl)cc4)noc3C)c(=O)c2)C1 [Example 160, 2-[[3-(4-chlorophenyl)-5-methyl-isoxazol-4-yl]methyl]-5-(3-methoxyazetidin-1-yl)pyridazin-3-one] | 43% | 1.43 | 7.4 nM
